Patent US12264175B2, “Compositions and methods for capping RNAS” (Verve Therapeutics, Inc., priority 2020, dated 2025)

System: HeLa lysate
Assay: Translation of capped luciferase mRNA in HeLa lysate in vitro translation kit
Format: biochemical
Settings: luciferase encoding mRNA with the 5′ end motif, luminescence, FIG. 5
Protocol: HeLa cells are cultured in RPMI with 10% FBS at 37° C. under 5% CO2 atmosphere. Cells are plated into an appropriately sized well plate per manufacturer's recommended seeding conditions. After overnight incubation, cells are checked for monolayer formation and then transfected using a transfection agent such as MessengerMAX. Solution A: the desired amount of luciferase mRNA is diluted in OptiMEM and mixed with Solution B: MessengerMAX in OptiMEM. After mixing solutions A and B, the mixture is incubated at room temperature for 20 minutes, and then added dropwise to each well of cells. The cells are then incubated at 37° C. for 12-72 hours to allow for expression of mRNA into protein. Cells are harvested and prepared for measuring luciferase protein levels per Promega luciferase assay system protocol. […] For example, luciferase encoding mRNA with 5′ end region motif, 1007a, was added to a commercially available HeLa lysate in vitro translation kit to produce luciferase protein. Luciferase protein activity as measured by luminescent light production in the presence of a luciferin substrate, was measured with a luminescence-detecting plate reader. Relative light units measured per this assay are proportional to the amount of luciferase protein translated from mRNA. […]

SMILES: COC1C(OP([O-])(=S)OCC2OC(n3cnc4c(=O)[nH]c(N)nc43)C(O)C2O)C(COP(=O)(O)OP(=O)(O)OP(=O)(O)OCC2OC(n3c[n+](C)c4c(=O)[nH]c(N)nc43)C(O)C2O)OC1n1cnc2c(N)ncnc21 (stereo not shown) [1007a, m^7G(ppp)Am(ps)G]
- luciferase activity relative to mRNA with initiator 1002a: around 2 x
